Numbered stars: 1 amine (or outer) side, 2 acyl side, 3 side chain; on linkers, the order of the positions; unused ones are H or OH. Bridge positions count the residues as written; N and C are the ends. Square brackets hold non-standard residues; d marks the D form. Ends that are not written are not given here. Peptide text beside a SMILES is read from it. TrpN2 = Trp building unit for backbone cyclization, bridging arm N2; Ala(Nα-(CH2)3CO) = C[C@@H](C(=O)[*:2])N(CCCC(=O)[*:3])[*:1]; Ala(Nα-(CH2)3NH) = C[C@@H](C(=O)[*:2])N(CCCN[*:3])[*:1]; Phe(4-NO2) = N[C@@H](Cc1ccc([N+](=O)[O-])cc1)C(=O)O; 4Pal = N[C@@H](Cc1ccncc1)C(=O)O; LysC3 = not defined here; Orn = NCCC[C@H](N)C(=O)O
Legend:
[1] = test system: TF1 cells maintained with IL-6; assay: Bioassay using TF1 cells maintained with IL-6; type: cell-based, human; design: TF1: unit not given here; details: for TF1: MPS crude peptides, Table 6; for Inhibition of IL-6 activity (%), Experiment 24, WST, IL-6 / Inhibition of IL-6 activity (%), Experiment 24, 3H-T, IL-6: cells with IL-6; for Inhibition of IL-6 activity (%), Experiment 24, 3H-T, IL-6: Experiment 24, thymidine incorporation; for specificity of inhibition, IL-6 versus GM-CSF maintained TF1 cells: in words, Table 7 and FIG. 4
Text: TF1 cells (human erythroleukemia) cells require IL-6 for growth and thus inhibition of IL-6 bioactivity results in cell death, similar to T1165 cells. The origin of all relevant molecules is human.
(§1) The problem associated with toxicity (false positive results), could be overcome in the TF1 based assay since these cells can be induced by additional cytokines which are unrelated to IL-6 (not using the gp130 signal transducer). It, is possible to induce the cells to grow with IL-6 and with additional cytokine e.g. GM-CSF. Specific inhibition of IL-6 bioactivity is therefore expected to register only in cells induced by IL-6 and not with GM-CSF. […] Assay procedure is based on the procedure described in Fourcin et al. (ibid). The amount of viable cells at the end of the assay is determined by staining the cells with WST reagent as well as by measuring thymidine corporation (^3H-T).
The libraries were screened for binding of soluble IL-6. The information obtained was used for synthesis of backbone cyclic peptides in MPS format. Analyses for biological activity were performed on the TF1 human cell line.
(§2) Since the endpoint of the bioassay used is cell death, there is a need to check the specificity of the killing action, and to examine whether the cell death is due to inhibition of the IL-6 signaling pathway. The peptide analogs were therefore analyzed for their ability to induce non-specific cell death when the same cells were maintained with GM-CSF (instead of IL-6) as growth factor.

[2] = test system: B16.F10.9 melanoma cells; details: for B16F10.9 active at: theoretical crude concentration, MPS peptides
Text: The F10.9 sub-line of B16 (murine melanoma) expresses gp130 but not IL-6R. Addition of human IL-6 and human IL-6R, or a chimera of IL-6/IL-6R results in differentiation which is associated with growth arrest of the cells. Inhibition of IL-6 results in continued growth. Since the end point of this assay is cell growth rather than cell death, this assay system was used primarily in order to differentiate between suspected toxic effects observed on B9 or T1165 cells, and true inhibition of IL-6 activity.
Evaluation of the results in this assay is possible using two methods. One method uses vital dyes for monitoring cell growth. The second method comprises visual observation of the cell morphology and establishing a cut off point based on the following observations:
Cells which are not treated with IL-6 create a monolayer that covers almost all the surface area. Treatment with IL-6 causes growth arrest and a morphological change: the cells become very narrow and elongated as compared to the more spread out shape of the non-treated cells.
Peptides were added to B16.F10.9 melanoma cells in the presence of 200 ng/ml IL-6 and 125 ng/ml sIL-6R. Incubation for three days.

[3] = test system: TF1 cells maintained with GM-CSF; assay: Selectivity bioassay using TF1 cells maintained with GM-CSF; type: cell-based, human; details: for Inhibition (%), Experiment 24, 3H-T, GM-CSF: Experiment 24, thymidine incorporation
Text: as §1, §2

Molecule | TF1 [1] | B16F10.9 active at [2] [µM] | IC50 in the B16F10.9 cell assay [2] | Inhibition of IL-6 activity (%), Experiment 23, WST, a [1] [%] | Inhibition of IL-6 activity (%), Experiment 23, WST, b [1] [%] | Inhibition of IL-6 activity (%), Experiment 24, WST, IL-6 [1] [%] | Inhibition of IL-6 activity (%), Experiment 24, 3H-T, IL-6 [1] [%] | Inhibition (%), Experiment 24, WST, GM-CSF [3] [%] | Inhibition (%), Experiment 24, 3H-T, GM-CSF [3] [%] | specificity of inhibition, IL-6 versus GM-CSF maintained TF1 cells [1] | concentration that fully blocks IL-6 activity ([2]; 200 ng/ml IL-6 and 125 ng/ml sIL-6R, three days, FIG. 2)
CC(C)C[C@@H]1NC(=O)[C@H](C)N(C(=O)[C@@H](Cc2ccccc2)NC(=O)[C@@H](CCCNC(=N)N)NC(=O)[C@H](CCCCN)NC(=O)[C@H](CCCNC(=N)N)NC(=O)[C@H](N)CCCCN)CCCC(=O)NCCCN([C@@H](C)C(N)=O)C(=O)[C@H](Cc2ccc(O)cc2)NC(=O)[C@H](CCCNC(=N)N)NC1=O [(D)Lys-Arg-Lys-(D)Arg-(D)Phe-AlaC3-Leu-Arg-Tyr-AlaN3] (H-[dK]RK[dR][dF][Ala(Nα-(CH2)3CO)]LRY[Ala(Nα-(CH2)3NH)]-NH2; lactam 6-10) | 13 | 62 | – | – | – | – | – | – | – | – | –
C[C@@H](C(N)=O)N1CCCNC(=O)CCCN(C(=O)[C@@H](Cc2ccccc2)NC(=O)[C@@H](CCCNC(=N)N)NC(=O)[C@H](CCCCN)NC(=O)[C@H](CCCNC(=N)N)NC(=O)[C@H](N)CCCCN)[C@@H](C)C(=O)N[C@@H](CCCCN)C(=O)N[C@@H](CCCNC(=N)N)C(=O)N[C@@H](Cc2ccc(O)cc2)C1=O [(D)Lys-Arg-Lys-(D)Arg-(D)Phe-AlaC3-Lys-Arg-Tyr-AlaN3] (H-[dK]RK[dR][dF][Ala(Nα-(CH2)3CO)]KRY[Ala(Nα-(CH2)3NH)]-NH2; lactam 6-10) | 17 | 62 | – | – | – | – | – | – | – | – | –
CC(C)C[C@H]1NC(=O)[C@H](C)N(C(=O)[C@H](Cc2ccccc2)NC(=O)[C@@H](CCCNC(=N)N)NC(=O)[C@H](CCCCN)NC(=O)[C@H](CCCNC(=N)N)NC(=O)[C@H](N)CCCCN)CCCC(=O)NCCCN([C@@H](C)C(N)=O)C(=O)[C@H](Cc2ccc(O)cc2)NC(=O)[C@H](CCCNC(=N)N)NC1=O [(D)Lys-Arg-Lys-(D)Arg-Phe-AlaC3-(D)Leu-Arg-Tyr-AlaN3] (H-[dK]RK[dR]F[Ala(Nα-(CH2)3CO)][dL]RY[Ala(Nα-(CH2)3NH)]-NH2; lactam 6-10) | 3 | 62 | – | – | – | – | – | – | – | – | –
CC(C)C[C@H](NC(=O)[C@H](CCCNC(=N)N)NC(=O)[C@@H](N)Cc1ccc(O)cc1)C(=O)N[C@@H](CCCNC(=N)N)C(=O)N[C@@H](Cc1ccccc1)C(=O)N1CCCC(=O)NCCCN([C@@H](C)C(=O)N[C@@H](C)C(=O)N[C@@H](CCC(=O)O)C(N)=O)C(=O)[C@H](Cc2ccc(O)cc2)NC(=O)[C@H](CCCNC(=N)N)NC(=O)[C@H](CC(C)C)NC(=O)[C@@H]1C [PTR 5037, Tyr-Arg-Leu-Arg-Phe-AlaC3-Leu-Arg-Tyr-AlaN3-Ala-Glu] (H-YRLRF[Ala(Nα-(CH2)3CO)]LRY[Ala(Nα-(CH2)3NH)]AE-NH2; lactam 6-10; N-terminus and C-terminus assumed) | – | – | around 20 μg/ml | – | – | – | – | – | – | – | –
(D)Bip-(D)LysC2-Lys-Lys(ZCl)-(D)TrpN2-Abu-NH2 [Peptide 88] | – | – | – | 96 | 98 | 112 | 114 | 103 | 115 | – | –
(D)Bip-(D)LysC3-4PyrAla-Orn-TrpN2-(p-NO2)Phe-NH2 [Peptide 41] | – | – | – | 96 | 100 | 95 | 101 | 25 | −13 | clearly specific to the IL-6 pathway | –
(D)Bip-(D)LysC3-Orn-Lys-AsnN2-Arg-NH2 [Peptide 20] | – | – | – | 37 | 56 | 49 | 78 | −59 | −42 | – | –
(D)Bip-GlyC2-Dab-(D)Glu-(D)AlaN3-Abu-NH2 [Peptide 91] | – | – | – | 98 | 106 | 123 | 113 | 45 | 75 | – | –
(D)PheC2-(D)Bip-Arg-Lys-(D)TrpN2-Gln-NH2 [Peptide 81] | – | – | – | 38 | 46 | 92 | 93 | 43 | 27 | – | –
(D)PheC2-(D)Cit-Dpr-HomArg-(D)GlnN2-(D)Gln-NH2 [Peptide 17] | – | – | – | 50 | 44 | 67 | 80 | −23 | −30 | – | –
Dab-TrpC2-Dpr-Arg(MTR)-(D)AlaN3-Glu-NH2 [Peptide 83] | – | – | – | 2 | 4 | 31 | 51 | −5 | 12 | – | –
Gln-GlyC2-(D)Dab-Arg(MTR)-TrpN2-Trp-NH2 [Peptide 61] | – | – | – | 54 | 58 | 86 | 58 | 4 | −49 | – | –
Lys(ZCL)-AlaC2-Dab-(D)Glu-(D)AlaN3-(D)Trp-NH2 [Peptide 25] | – | – | – | 54 | 54 | 77 | 104 | −49 | 26 | – | –
Lys(ZCL)-GlyC2-Dab-(D)Glu-(D)AlaN3-(D)Trp-NH2 [Peptide 57] | – | – | – | 122 | 114 | 121 | 114 | 48 | 102 | – | –
Lys-TrpC2-(D)Arg-Lys-TrpN3-Gln-NH2 [Peptide 34] | – | – | – | 97 | 108 | 96 | 106 | −27 | 3 | clearly specific to the IL-6 pathway | –
LysC3-Lys-4PyrAla-Orn-TrpN2-(p-NO2)Phe-NH2 ([LysC3]K[4Pal][Orn][TrpN2][Phe(4-NO2)]-NH2; bridge 1-5; reading uncertain; also: backbone cyclization, places not given here, printed as LysC3-Lys-4PyrAla-Orn-TrpN2-(p-NO2)Phe-NH2) [Peptide 40] | – | – | – | 42 | 72 | 43 | 61 | −45 | −63 | – | –
LysC4-Lys-(D)Arg-Lys-TrpN3-Gln-NH2 [Peptide 33] | – | – | – | 116 | 119 | 112 | 113 | 39 | 70 | – | –
Trp-Arg-Lys-(D)Arg-Phe-AlaC3-Leu-Arg-Tyr-AlaN3-NH2 [PTR 5049] | – | – | – | – | – | – | – | – | – | – | not active
